Measured values as given in article PMC5469273, “Discovery of Novel Small-Molecule Inhibitors of LIM Domain Kinase for Inhibiting HIV-1” (Journal of Virology, 2017).

Key:
JNK3 = JNK3 (Homo sapiens, UniProt P53779); assay: Kinase profiling (Reaction Biology): JNK3
c-MET = c-MET (Homo sapiens, UniProt P08581); assay: Kinase profiling (Reaction Biology): c-MET
TLK1 = TLK1 (Homo sapiens, UniProt Q9UKI8); assay: Kinase profiling (Reaction Biology): TLK1
GSK3b = GSK3b (Homo sapiens, UniProt P49841); assay: Kinase profiling (Reaction Biology): GSK3b
HIV-1(NL4-3) = assay: microbe, parasite or virus in culture; type: cell-based; conditions: Human immunodeficiency virus 1, NL43; pretreated 1 h, HIV-1(NL4-3) 3 h, washed, 48 h; luciferase; read-out: IC50, inhibition of HIV
TESK1 = TESK1 (Homo sapiens, UniProt Q15569); assay: Kinase profiling (Reaction Biology): TESK1
VEEV (TrD) = type: cell-based, Venezuelan equine encephalitis virus; conditions: Vero cells, MOI 0.1, 24 h
ROCK1 = ROCK1 (Homo sapiens, UniProt Q13464); assay: Kinase profiling (Reaction Biology): ROCK1
BTK = BTK (Homo sapiens, UniProt Q06187); assay: Kinase profiling (Reaction Biology): BTK
Sequence of BTK (Q06187 whole entry): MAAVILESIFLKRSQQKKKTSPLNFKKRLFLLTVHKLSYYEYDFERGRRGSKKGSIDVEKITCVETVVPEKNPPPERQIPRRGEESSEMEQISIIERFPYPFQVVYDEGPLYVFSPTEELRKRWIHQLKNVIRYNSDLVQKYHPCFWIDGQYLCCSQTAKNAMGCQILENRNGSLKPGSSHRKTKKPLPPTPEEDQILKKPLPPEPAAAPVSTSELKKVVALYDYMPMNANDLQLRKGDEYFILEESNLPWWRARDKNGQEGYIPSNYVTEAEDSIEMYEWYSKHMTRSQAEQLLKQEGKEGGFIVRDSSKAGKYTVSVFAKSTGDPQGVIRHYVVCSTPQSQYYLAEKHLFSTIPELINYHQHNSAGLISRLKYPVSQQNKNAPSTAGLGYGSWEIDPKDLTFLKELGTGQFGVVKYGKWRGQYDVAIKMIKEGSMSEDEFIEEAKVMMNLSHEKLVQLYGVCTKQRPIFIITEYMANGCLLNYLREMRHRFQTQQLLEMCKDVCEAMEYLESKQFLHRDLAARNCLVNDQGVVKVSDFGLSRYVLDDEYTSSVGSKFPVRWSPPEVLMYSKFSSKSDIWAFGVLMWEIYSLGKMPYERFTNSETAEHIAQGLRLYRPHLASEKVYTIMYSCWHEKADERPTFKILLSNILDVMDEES

Sequence of TLK1 (Q9UKI8 whole entry): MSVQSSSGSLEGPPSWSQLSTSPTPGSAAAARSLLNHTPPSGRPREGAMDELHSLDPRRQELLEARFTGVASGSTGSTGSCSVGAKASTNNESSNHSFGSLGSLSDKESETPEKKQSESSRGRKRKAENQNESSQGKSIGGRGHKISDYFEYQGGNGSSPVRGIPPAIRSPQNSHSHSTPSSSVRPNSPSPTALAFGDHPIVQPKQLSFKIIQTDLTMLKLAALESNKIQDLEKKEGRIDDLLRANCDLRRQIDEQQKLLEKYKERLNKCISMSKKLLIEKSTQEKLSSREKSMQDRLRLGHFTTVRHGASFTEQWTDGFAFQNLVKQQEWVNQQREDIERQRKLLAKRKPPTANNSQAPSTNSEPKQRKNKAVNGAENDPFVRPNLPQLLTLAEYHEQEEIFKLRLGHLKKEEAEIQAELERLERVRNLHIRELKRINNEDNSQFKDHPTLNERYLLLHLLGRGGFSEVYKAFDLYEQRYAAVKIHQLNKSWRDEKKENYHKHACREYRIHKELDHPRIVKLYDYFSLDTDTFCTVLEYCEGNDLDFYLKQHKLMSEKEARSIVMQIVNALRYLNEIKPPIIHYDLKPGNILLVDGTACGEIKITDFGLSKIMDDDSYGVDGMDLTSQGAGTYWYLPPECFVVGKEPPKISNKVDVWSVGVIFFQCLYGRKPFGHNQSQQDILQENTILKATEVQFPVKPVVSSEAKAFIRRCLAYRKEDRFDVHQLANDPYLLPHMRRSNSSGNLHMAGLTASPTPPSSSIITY
Sequence of JNK3 (P53779 whole entry): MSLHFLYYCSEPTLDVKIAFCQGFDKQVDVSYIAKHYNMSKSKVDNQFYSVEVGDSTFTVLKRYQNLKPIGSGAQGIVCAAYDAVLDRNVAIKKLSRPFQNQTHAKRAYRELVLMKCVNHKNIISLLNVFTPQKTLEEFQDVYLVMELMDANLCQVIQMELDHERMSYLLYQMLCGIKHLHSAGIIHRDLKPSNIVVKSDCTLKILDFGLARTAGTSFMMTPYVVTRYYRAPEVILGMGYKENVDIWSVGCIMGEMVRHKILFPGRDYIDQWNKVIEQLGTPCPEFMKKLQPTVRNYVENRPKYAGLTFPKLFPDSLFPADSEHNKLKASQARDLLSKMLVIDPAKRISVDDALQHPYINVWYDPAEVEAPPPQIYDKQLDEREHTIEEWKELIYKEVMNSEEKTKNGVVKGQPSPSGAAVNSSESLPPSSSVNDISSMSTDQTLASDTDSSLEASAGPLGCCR
Sequence of GSK3b (P49841 whole entry): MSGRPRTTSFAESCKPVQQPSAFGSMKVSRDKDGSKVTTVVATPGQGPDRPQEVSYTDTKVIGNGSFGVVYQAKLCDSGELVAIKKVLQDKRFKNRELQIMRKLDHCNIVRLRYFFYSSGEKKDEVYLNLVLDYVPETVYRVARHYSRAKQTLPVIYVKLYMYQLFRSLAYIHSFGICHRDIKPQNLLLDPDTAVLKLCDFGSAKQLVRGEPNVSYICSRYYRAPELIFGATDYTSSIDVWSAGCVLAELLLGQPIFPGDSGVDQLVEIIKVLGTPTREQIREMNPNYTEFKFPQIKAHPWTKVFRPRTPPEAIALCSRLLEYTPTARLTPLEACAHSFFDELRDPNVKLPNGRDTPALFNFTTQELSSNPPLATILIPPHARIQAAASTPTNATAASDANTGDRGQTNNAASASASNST
Sequence of c-MET (P08581 25-1390): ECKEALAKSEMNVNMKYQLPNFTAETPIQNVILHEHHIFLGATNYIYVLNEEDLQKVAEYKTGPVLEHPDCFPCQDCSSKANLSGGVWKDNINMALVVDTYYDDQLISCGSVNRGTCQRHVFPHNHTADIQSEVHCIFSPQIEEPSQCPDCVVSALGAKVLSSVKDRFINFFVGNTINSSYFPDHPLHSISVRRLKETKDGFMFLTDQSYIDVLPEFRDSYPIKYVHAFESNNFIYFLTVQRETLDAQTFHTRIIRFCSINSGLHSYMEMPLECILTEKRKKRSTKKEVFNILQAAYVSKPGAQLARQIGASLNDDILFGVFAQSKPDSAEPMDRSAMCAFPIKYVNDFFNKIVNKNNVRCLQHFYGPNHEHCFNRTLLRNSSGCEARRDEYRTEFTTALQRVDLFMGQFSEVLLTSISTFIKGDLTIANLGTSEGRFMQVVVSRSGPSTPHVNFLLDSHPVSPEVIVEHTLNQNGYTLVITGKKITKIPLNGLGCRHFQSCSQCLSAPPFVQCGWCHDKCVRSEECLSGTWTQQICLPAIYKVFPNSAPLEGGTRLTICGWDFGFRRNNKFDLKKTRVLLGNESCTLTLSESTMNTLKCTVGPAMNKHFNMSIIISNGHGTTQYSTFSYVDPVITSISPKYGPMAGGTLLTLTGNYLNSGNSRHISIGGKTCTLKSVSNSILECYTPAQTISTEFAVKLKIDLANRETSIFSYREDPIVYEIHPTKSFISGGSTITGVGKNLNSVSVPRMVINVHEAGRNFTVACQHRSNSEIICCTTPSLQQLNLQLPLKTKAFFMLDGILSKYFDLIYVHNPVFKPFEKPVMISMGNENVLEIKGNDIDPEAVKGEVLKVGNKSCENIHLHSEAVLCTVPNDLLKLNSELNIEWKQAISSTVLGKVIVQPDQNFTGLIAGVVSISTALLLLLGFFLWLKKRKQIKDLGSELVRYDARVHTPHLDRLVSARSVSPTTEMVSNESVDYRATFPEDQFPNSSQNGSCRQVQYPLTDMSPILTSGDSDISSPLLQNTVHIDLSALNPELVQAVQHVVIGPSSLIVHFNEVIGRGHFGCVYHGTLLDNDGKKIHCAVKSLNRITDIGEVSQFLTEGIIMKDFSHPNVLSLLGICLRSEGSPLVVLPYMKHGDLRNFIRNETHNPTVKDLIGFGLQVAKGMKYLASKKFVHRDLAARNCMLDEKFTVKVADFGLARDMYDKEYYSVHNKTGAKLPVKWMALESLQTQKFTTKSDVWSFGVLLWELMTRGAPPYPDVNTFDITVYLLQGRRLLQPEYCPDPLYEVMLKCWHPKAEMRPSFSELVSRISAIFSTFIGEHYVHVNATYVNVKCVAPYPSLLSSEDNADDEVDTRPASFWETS
Sequence of ROCK1 (Q13464 whole entry): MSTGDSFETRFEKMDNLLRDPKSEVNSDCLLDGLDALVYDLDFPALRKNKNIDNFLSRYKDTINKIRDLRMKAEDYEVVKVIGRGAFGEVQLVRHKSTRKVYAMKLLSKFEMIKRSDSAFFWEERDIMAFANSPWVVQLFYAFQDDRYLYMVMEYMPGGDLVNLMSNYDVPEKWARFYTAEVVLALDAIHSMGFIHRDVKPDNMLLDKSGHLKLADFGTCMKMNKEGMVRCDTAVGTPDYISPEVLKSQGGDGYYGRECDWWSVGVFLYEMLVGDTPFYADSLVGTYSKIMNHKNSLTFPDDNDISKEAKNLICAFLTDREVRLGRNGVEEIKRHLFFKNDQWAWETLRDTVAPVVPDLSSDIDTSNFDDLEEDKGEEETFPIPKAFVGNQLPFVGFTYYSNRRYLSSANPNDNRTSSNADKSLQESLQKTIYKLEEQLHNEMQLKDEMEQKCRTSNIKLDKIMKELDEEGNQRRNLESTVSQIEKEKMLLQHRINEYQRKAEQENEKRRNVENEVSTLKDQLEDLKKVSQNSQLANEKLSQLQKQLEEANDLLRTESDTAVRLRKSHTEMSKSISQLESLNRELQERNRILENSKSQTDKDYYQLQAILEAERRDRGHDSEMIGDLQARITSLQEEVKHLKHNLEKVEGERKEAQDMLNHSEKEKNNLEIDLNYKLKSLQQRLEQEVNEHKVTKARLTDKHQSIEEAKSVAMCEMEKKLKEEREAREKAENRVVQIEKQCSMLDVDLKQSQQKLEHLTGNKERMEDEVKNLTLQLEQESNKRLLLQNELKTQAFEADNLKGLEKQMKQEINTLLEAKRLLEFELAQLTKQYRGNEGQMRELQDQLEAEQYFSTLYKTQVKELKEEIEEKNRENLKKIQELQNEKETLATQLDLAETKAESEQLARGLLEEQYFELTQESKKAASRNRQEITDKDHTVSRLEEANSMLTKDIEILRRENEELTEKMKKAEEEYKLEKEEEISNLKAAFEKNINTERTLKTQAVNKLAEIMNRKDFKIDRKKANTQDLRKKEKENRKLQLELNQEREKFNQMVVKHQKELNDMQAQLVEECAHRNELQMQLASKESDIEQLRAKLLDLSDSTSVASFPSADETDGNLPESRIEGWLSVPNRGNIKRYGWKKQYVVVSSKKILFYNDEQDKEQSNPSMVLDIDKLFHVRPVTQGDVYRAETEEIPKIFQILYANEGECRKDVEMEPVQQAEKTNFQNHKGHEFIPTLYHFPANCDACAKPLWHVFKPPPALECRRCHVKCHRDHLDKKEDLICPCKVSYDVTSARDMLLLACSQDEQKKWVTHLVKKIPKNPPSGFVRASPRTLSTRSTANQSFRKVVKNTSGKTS

## COC(=O)c1ccc2[nH]c(C3CCN(c4ncnc5[nH]cc(Cl)c45)CC3)nc2c1 [Compound R10015, Methyl 2-(1-(5-chloro-7H-pyrrolo[2,3-d]pyrimidin-4-yl)piperidin-4-yl)-1H-benzo[d]imidazole-5-carboxylate]
JNK3
  activity at 1 µM: 85.7%
c-MET
  activity at 1 µM: 82.1%
TLK1
  activity at 1 µM: 98.5%
GSK3b
  activity at 1 µM: 67.8%
HIV-1(NL4-3)
  IC50: 14.9 µM
TESK1
  activity at 1 µM: 90.2%
VEEV (TrD)
  inhibition of VEEV (TrD): 2 log units
ROCK1
  activity at 1 µM: 42.3%
BTK
  activity at 1 µM: 90.2%
